We go through four molecules from patent US7592140B2, “2′, 5′-oligoadenylate phosphodiesterase” (priority 2002, dated 2009).

A short description of series [1]: Solubility (physicochemical properties).
Series [2] concerns the target T1, recombinant human 2′-PDE (Homo sapiens, UniProt Q6L8Q7).
T1 sequence (Q6L8Q7 43-609): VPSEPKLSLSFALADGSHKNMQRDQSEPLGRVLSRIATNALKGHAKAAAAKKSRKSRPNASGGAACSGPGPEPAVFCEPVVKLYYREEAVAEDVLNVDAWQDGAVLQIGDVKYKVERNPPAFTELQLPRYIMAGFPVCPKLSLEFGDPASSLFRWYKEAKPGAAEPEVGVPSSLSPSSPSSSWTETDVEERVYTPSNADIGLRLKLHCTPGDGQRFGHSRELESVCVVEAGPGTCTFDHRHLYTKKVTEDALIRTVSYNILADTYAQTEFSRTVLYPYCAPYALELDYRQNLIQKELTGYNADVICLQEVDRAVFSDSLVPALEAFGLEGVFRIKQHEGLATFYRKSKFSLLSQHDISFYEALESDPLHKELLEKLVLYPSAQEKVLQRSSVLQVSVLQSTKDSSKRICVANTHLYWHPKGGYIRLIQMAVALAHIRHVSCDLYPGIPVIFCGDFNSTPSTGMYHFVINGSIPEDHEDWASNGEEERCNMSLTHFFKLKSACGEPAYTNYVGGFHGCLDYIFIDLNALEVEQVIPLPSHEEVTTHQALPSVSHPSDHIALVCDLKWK
Put plainly: Inhibition of recombinant human 2′-PDE activity (HPLC measurement of substrate reduction). The class given is biochemical. On the set-up: His6 (histidine hexamer) (C); made in house; nickel-chelate partial purification. The settings on record: substrate 0.75 mM adenylyl(2′-5′)adenosine, 37° C. for 60 min; read-out: 50% inhibition concentration (converted). As to the method:
To 10 μl of the partially purified human 2′-PDE enzyme solution obtained in part 1) of Production Example 1, were added 80 μl of Buffer 7 containing 0.75 mM adenylyl(2′-5′)adenosine as the substrate and 10 μl of a solution of the A-74528 compound dissolved in dimethyl sulphoxide. Then the mixture was incubated at 37° C. for 60 min. and the enzyme was inactivated by addition of 200 μl of methanol. Ten μl of the sample obtained, after insoluble matter was removed using a 0.45 μm filter, was subjected to a reversed phase column (Inertsil ODS-2, 5 μm: diameter 4.6 mm×150 mm: manufactured by GL Science), equilibrated beforehand with Buffer 17 [50 mM ammonium acetate (pH 5.0), 5% (V/V) acetonitrile]. Liquid chromatography was performed at a flow rate of 1 ml/min. at 40° C., and the eluate was monitored at a wavelength of 260 nm. The elution was conducted as an isocratic elution. Using a standard material for the substrate, a conversion formula for obtaining the substrate amount based on the peak area was prepared. Based on the conversion formula, the reduction in the amount of the substrate was calculated from the substrate peak area when the diluted enzyme solution was added, which was regarded as the amount of the enzyme reaction product.

In a further series the test system is Vaccinia virus WR strain. The series is classed as cell-based.
For series [3], the system named is 2′-PDE stable expression strains #6 and #10. Put plainly: Cell viability of 2′-PDE stable expression strains of PC-3 (Alamar Blue). The series is classed as cell-based, human. The settings on record: cultured for 3 days.
The test system of another series is PC-3 cells. Put plainly: Cell viability of PC-3 cells (Alamar Blue). The note with it: host PC-3 cells, cultured for 3 days. The class given is cell-based, human. A general note: The colour change of resazurin is a common sign of viable cells or microbes.
Series [4] has as its target T1, recombinant human 2′-PDE. Put plainly: Substrate specificity of recombinant human 2′-PDE (HPLC). The series is classed as biochemical. On the set-up: His6 (histidine hexamer) (C); made in house; host or cells: COS-1 cells (monkey kidney), transient transfection with pEF6/KUBO#002/11-1; nickel-chelate partial purification. The note with it: relative to adenylyl(2′-5′)adenosine defined as one; 150 μM substrate, 37° C. for 60 min.

Series [5] has as its system 2′-PDE purified by Johnston et al. The note with it: value obtained by Johnston et al.; activity with A2′pA defined as 1; cited from earlier work.

Turning to `CC1c2c(O)cc(O)c3c2C2C(CC(O)=C4C(=O)c5c(O)cc(O)cc5C(C3=O)C42Cc2cc(O)cc(=O)o2)C1O` (stereo not shown) [A-74528], the solubility entry in series [1] was “soluble in methanol and dimethyl sulphoxide”. Moreover, the IC50 on recombinant human 2′-PDE [2] was 60.7 µM. For the same molecule, in the series on Vaccinia virus WR strain, the “effect on viral replication-suppression activity of interferon-α” value was “enhanced the viral replication-suppression activity of interferon-α” and the viral replication-suppression activity result is recorded as “exhibited a viral replication-suppression activity in a concentration-dependent manner”.

On to interferon-α, for which, in series [3], the “cell proliferation suppression activity compared with host PC-3 cells” value was “attenuated”. Moreover, the “suppression of cell viability” value with PC-3 cells is “suppressed the viability of PC-3 cells in a concentration-dependent manner”.

As to `Nc1ncnc2c1ncn2[C@@H]1O[C@H](COP(=O)(O)O[C@H]2[C@@H](O)[C@H](n3cnc4c(N)ncnc43)O[C@@H]2COP(=O)(O)O[C@H]2[C@@H](O)[C@H](n3cnc4c(N)ncnc43)O[C@@H]2CO)[C@@H](O)[C@H]1O` [adenylyl(3′-5′)adenylyl(3′-5′)adenosine], the relative cleavage efficiency was 1.1 at recombinant human 2′-PDE [4] and 163 in series [5].

B1: interferon-γ (protein, UniProt P01579 24-161, looked up)
Interferon gamma: QDPYVKEAENLKKYFNAGHSDVADNGTLFLGILKNWKEESDRKIMQSQIVSFYFKLFKNFKDDQSIQKSVETIKEDMNVKFFNSNKKKRDDFEKLTNYSVTDLNVQRKAIHELIQVMAELSPAAKTGKRKRSQMLFRG
On to B1, for which, in series [3], the “cell proliferation suppression activity compared with host PC-3 cells” value is on record as “attenuated”. For the same molecule, the “suppression of cell viability” value with PC-3 cells is recorded as “suppressed the viability of PC-3 cells in a concentration-dependent manner”.
